Patent US10889625B2, “Peptide-based methods for treating neurological injury” (THE REGENTS OF THE UNIVERSITY OF COLORADO, a body corporate, priority 2016, dated 2021)
Residues, ends and D or L forms follow the SMILES beside them.

Assays:
[1] = mice, MCAO
TRPM2 ion channels = TRPM2 ion channels (Mus musculus, UniProt Q91YD4); conditions: males and females, background statement; cited from earlier work
TRPM2 channels = target: T1, TRPM2 channels (Mus musculus, UniProt Q91YD4); assay: 60 min tMCAO, total hemisphere infarct volume (TTC) in WT mice; assay type: in vivo; conditions: given 3 hours after MCAO
T1 construct: from tissue; host or cells: mouse brain in vivo; acute hippocampal/brain slices from mice
T1 sequence (Q91YD4 whole entry): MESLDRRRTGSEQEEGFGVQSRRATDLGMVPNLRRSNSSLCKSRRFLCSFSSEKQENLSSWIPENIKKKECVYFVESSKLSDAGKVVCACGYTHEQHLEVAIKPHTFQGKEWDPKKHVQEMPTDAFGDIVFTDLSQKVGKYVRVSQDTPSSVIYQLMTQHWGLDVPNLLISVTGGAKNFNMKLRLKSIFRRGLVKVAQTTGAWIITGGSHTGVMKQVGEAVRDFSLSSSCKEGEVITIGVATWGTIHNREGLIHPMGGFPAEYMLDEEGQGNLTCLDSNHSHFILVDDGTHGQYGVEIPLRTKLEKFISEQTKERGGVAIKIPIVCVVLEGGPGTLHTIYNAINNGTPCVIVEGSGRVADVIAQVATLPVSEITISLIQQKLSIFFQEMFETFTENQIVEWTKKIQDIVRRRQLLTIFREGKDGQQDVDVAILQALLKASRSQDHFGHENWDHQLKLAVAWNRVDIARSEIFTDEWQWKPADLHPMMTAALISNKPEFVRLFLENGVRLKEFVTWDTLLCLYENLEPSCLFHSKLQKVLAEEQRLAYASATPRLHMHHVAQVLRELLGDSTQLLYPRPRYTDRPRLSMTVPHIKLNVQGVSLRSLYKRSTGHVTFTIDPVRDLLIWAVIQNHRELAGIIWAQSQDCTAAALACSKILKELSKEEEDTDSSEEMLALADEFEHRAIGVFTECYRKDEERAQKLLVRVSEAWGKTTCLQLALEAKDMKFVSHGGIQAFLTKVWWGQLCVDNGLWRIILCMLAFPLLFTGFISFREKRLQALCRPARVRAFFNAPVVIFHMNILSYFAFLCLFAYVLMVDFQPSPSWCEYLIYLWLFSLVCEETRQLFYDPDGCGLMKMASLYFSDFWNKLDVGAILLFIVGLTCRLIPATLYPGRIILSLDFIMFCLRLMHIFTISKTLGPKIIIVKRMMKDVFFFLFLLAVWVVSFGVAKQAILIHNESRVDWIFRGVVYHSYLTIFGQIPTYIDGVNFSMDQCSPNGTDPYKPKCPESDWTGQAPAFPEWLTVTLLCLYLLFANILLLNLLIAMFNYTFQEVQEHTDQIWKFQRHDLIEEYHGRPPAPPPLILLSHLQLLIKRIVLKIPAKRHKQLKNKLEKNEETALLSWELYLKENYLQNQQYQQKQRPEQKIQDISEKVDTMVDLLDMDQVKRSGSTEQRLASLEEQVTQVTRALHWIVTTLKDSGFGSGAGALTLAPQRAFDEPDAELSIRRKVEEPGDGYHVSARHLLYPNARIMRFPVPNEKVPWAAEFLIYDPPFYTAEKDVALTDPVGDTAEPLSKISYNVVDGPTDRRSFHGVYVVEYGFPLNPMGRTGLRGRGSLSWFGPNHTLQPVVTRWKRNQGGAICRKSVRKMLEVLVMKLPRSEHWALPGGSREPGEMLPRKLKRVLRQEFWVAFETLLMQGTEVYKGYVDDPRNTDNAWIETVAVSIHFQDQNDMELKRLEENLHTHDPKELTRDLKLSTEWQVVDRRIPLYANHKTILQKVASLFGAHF

Chain of TRPM2 ion channels (Q91YD4 whole entry): as above

With `CSCC[C@H](NC(=O)[C@H](CCC(=O)O)NC(=O)CNC(=O)[C@@H]1CCCN1C(=O)[C@H](CCC(=O)O)NC(=O)[C@H](CCCNC(=N)N)NC(=O)[C@H](CO)NC(=O)CNC(=O)[C@H](CCCNC(=N)N)NC(=O)[C@H](CCCNC(=N)N)NC(=O)[C@H](CCCNC(=N)N)NC(=O)[C@H](CCC(N)=O)NC(=O)[C@H](CCCNC(=N)N)NC(=O)[C@H](CCCNC(=N)N)NC(=O)[C@H](CCCCN)NC(=O)[C@H](CCCCN)NC(=O)[C@H](CCCNC(=N)N)NC(=O)CNC(=O)[C@@H](N)Cc1ccc(O)cc1)C(=O)N[C@@H](CC(C)C)C(=O)N1CCC[C@H]1C(=O)N[C@@H](CCCNC(=N)N)C(=O)N[C@@H](CCCCN)C(=O)N[C@@H](CC(C)C)C(=O)N[C@@H](CCCCN)C(=O)N[C@@H](CCCNC(=N)N)C(=O)N[C@H](C(=O)N[C@@H](CC(C)C)C(=O)N[C@@H](CCCNC(=N)N)C(=O)N[C@@H](CCC(N)=O)C(=O)N[C@@H](CCC(=O)O)C(=O)N[C@@H](Cc1ccccc1)C(=O)N[C@@H](Cc1c[nH]c2ccccc12)C(=O)N[C@H](C(=O)O)C(C)C)C(C)C` [tat-M2NX] (H-YGRKKRRQRRRGSREPGEMLPRKLKRVLRQEFWV-OH; N-terminus and C-terminus assumed) the “effect on physiological variables such as blood pressure” value [1] was “no effect”.
For `Clc1ccccc1C(c1ccccc1)(c1ccccc1)n1ccnc1` [CTZ, clotrimazole], the “infarct size following stroke” value (TRPM2 ion channels) is given as “reduces infarct size in males, but not females” and the infarct volume (TRPM2 channels) is given as 46.8±7.4%.
